Values joined by “and” are separate entries in the source; they are usually repeats but may differ in a detail not shown here. Equal values may be shown once. Read-outs that look alike come from different tables or passages of the source.
Columns and labels:
[1] = biological target: T1, CAVB (Homo sapiens, UniProt Q9Y2D0); assay: Thermal shift assay (TSA), recombinant CAVB; format: binding; conditions: 37 °C, pH 7.0, observed (not intrinsic)
T1 construct: made in house; host or cells: E. coli

[2] = biological target: T2, CAI (Homo sapiens, UniProt P00915); assay: Thermal shift assay (TSA), recombinant CAI; format: binding; conditions: 37 °C, pH 7.0, observed (not intrinsic)
T2 construct: made in house; host or cells: E. coli
T2 sequence (P00915 whole entry): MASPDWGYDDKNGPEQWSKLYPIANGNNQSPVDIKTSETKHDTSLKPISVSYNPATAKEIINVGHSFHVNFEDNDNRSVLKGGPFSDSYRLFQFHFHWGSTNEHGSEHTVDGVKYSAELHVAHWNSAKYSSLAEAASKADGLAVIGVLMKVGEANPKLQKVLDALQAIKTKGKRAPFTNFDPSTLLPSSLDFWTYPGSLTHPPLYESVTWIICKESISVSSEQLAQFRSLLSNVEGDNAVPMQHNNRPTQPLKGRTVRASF

[3] = biological target: CAIX expressed on live A549 cells (Homo sapiens, UniProt Q16790); assay: Competition of unlabeled compound with 10 nM GZ19-32 on hypoxic A549 cells (competitive binding model)
[4] = biological target: T3, CAVA (Homo sapiens, UniProt P35218); assay: Thermal shift assay (TSA), recombinant CAVA; format: binding; conditions: 37 °C, pH 7.0, observed (not intrinsic)
T3 construct: made in house; host or cells: E. coli
T3 sequence (P35218 39-305): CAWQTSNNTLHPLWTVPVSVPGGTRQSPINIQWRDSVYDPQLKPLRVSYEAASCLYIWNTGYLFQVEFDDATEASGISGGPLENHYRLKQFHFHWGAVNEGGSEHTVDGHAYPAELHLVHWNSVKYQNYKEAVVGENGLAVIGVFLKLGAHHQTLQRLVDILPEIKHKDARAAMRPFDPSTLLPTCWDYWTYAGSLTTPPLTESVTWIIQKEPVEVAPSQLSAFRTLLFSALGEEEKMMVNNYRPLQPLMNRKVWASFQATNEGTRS
Experimental: (§1) The binding affinities of all fluorescein-containing compounds were determined for all 12 catalytically active CA isozymes by the thermal shift assay (TSA). […] However, the SFA technique cannot determine the affinities lower than the enzyme concentration used in the assay. […] In addition, we used isothermal titration calorimetry (ITC), the standard assay to determine affinity and enthalpy of protein–ligand binding. […] Therefore, ITC was used only to determine the enthalpy of interaction and confirm the ordering of compound affinities.
(§2) All twelve catalytically active human CA isozymes were prepared recombinantly as previously described. Isozymes CAIX, CAXII, and CAXIV were the catalytic domains of the proteins[14],[38]. All isozymes were expressed in E. coli except CAIX that has been prepared in mammalian cells. The proteins were chromatographically purified on ion-exchange or benzene sulfonamide containing affinity columns. Protein MW was confirmed by mass spectrometry with 1 Da precision as predicted from gene sequence.
(§3) Compound affinities for the twelve catalytically active CA isozymes were determined by the thermal shift assay as previously described[30],[39]. Protein solutions containing 1,8-anilinonaphthalenesulfonate fluorescent probe were heated from 25 to 100 °C at a rate of one degree per minute while following the fluorescence of the probe. The temperature scanning curves provided the melting temperature Tm of the protein. The Tm has a distinct dependence on the concentration of a compound. Stronger binders shift the Tm to a greater extent than the weak binders. The Tm dependencies on compound concentration were fit to obtain the affinity Kd[40].

[5] = biological target: T4, catalytic domain of recombinant human CAIX (Homo sapiens, UniProt Q16790); assay: Thermal shift assay (TSA), recombinant CAIX catalytic domain; format: binding
T4 construct: Isozymes CAIX, CAXII, and CAXIV were the catalytic domains of the proteins; made in house; host or cells: mammalian cells

[6] = biological target: T5, CAIII (Homo sapiens, UniProt P07451); assay: Thermal shift assay (TSA), recombinant CAIII; format: binding; conditions: 37 °C, pH 7.0, observed (not intrinsic)
T5 construct: made in house; host or cells: E. coli
T5 sequence (P07451 whole entry): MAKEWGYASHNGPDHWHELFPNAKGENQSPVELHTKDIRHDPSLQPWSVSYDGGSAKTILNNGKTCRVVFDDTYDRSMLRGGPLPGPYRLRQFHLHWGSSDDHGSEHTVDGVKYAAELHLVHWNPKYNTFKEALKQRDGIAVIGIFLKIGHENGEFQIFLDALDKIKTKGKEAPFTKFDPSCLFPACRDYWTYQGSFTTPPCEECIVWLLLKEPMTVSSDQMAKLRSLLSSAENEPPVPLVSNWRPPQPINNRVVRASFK
Experimental: as §1, §2, §3

[7] = biological target: T6, CAXIV (Homo sapiens, UniProt Q9ULX7); assay: Thermal shift assay (TSA), recombinant CAXIV; format: binding; conditions: 37 °C, pH 7.0, observed (not intrinsic)
T6 construct: Isozymes CAIX, CAXII, and CAXIV were the catalytic domains of the proteins; made in house; host or cells: E. coli
T6 sequence (Q9ULX7 20-278 limits assumed): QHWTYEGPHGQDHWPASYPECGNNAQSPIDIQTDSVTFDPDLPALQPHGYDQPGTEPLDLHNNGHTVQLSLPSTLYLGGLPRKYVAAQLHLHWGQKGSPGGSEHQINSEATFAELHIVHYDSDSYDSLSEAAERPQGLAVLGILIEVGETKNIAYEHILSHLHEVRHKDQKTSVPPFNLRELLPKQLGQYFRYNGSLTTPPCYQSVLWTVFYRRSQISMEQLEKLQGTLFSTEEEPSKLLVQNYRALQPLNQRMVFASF

[8] = biological target: T7, CAVII (Homo sapiens, UniProt P43166); assay: Thermal shift assay (TSA), recombinant CAVII; format: binding; conditions: 37 °C, pH 7.0, observed (not intrinsic)
T7 construct: made in house; host or cells: E. coli
T7 sequence (P43166 whole entry): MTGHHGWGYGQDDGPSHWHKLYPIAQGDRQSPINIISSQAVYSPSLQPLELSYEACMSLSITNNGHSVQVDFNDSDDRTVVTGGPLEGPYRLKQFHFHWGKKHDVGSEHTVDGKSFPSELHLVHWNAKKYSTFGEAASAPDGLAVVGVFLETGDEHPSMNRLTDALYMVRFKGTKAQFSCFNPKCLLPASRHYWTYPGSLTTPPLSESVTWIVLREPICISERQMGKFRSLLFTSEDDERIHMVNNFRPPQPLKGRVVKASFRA

[9] = test system: hypoxic HeLa cells; assay: XTT cell viability assay; format: cell-based, human; conditions: up to 1 µM, 3 h
Experimental: Potential cytotoxic effects on HeLa cells were determined by XTT assay. The XTT was carried out as previously described by Scudiero et al.[53]. HeLa cells were cultured under hypoxia (1% O2) for three days prior to measurements. Cells were detached from the plate with Accumax Cell Detachment Solution (ACM-1F; Capricorn Scientific, Ebsdorfergrund, Germany), washed and resuspended in HEPES-buffered saline (143 mM NaCl, 5 mM KCl, 2 mM CaCl2, 1 mM MgSO4, 1 mM Na2HPO4, 10 mM HEPES, pH 7.2). For each measurement, 100,000 cells were incubated with 1 nM or 1 µM of GZ18-23 for 3 h prior to adding the XTT (No. 38450, SERVA Electrophoresis GmbH, Heidelberg, Germany) / electron coupling reagent (PMS; No. 32030, SERVA). XTT-specific absorbance was measured at 492 nm using a microplate reader (Tecan Infinite F200; Tecan Trading AG, Männedorf, Switzerland). Background absorption was measured at 690 nm. Cells, which were not incubated in GZ18-23, were used as control (100%).

[10] = biological target: T8, CAVI (Homo sapiens, UniProt P23280); assay: Thermal shift assay (TSA), recombinant CAVI; format: binding; conditions: 37 °C, pH 7.0, observed (not intrinsic)
T8 construct: made in house; host or cells: E. coli
T8 sequence (P23280 18-308): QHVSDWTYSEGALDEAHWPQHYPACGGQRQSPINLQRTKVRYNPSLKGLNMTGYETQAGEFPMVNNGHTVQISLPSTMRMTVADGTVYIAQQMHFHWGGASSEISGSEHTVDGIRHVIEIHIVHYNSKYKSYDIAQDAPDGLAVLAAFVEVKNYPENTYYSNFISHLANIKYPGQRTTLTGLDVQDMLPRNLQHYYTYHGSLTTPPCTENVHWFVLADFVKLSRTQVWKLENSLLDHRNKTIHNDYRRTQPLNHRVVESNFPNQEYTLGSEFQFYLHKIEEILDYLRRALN
Experimental: as §1, §2, §3

[11] = biological target: T9, CAIV (Homo sapiens, UniProt P22748); assay: Thermal shift assay (TSA), recombinant CAIV; format: binding; conditions: 37 °C, pH 7.0, observed (not intrinsic)
T9 construct: made in house; host or cells: E. coli
T9 sequence (P22748 19-312): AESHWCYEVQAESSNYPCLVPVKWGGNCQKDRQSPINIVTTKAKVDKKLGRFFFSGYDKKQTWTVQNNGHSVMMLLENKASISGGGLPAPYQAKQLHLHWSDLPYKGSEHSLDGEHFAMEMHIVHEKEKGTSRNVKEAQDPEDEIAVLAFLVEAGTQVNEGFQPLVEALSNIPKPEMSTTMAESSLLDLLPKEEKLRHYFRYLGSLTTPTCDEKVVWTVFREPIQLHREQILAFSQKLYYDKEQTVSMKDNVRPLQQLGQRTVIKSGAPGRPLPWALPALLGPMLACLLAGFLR

[12] = test system: CA activity in hypoxic HeLa CAIX-KO cells; assay: CA activity by gas-analysis mass spectrometry in live hypoxic HeLa CAIX-KO cells; format: cell-based, human
Experimental: (§4) Catalytic activity of CA in hypoxic human cervical adenocarcinoma (HeLa) cells was determined by monitoring the ^18O depletion of doubly labeled ^13C^18O2 through several hydration and dehydration steps with a quadrupole mass spectrometer (OmniStar GSD 320; Pfeiffer Vacuum, Asslar, Germany) as previously described[16],[51]. HeLa cells were cultured in Dulbecco’s Modified Eagle’s Medium–high glucose (D5671; Sigma Aldrich, Schnelldorf, Germany), supplemented with 10% fetal calf serum and 1% penicillin / streptomycin. The cell line was cultured under hypoxia (1% O2) for three days prior to measurements. Cells were detached from the plate with Accumax Cell Detachment Solution (ACM-1F; Capricorn Scientific, Ebsdorfergrund, Germany), washed and resuspended in HEPES-buffered saline (143 mM NaCl, 5 mM KCl, 2 mM CaCl2, 1 mM MgSO4, 1 mM Na2HPO4, 10 mM HEPES, pH 7.2). Approximately 3 × 10^6 cells, dissolved in 5 mL of HEPES-buffered saline (pH 7.2, RT), were used for every single measurement. […] For every measurement, the non-catalyzed reaction was determined for 12 min in the presence of inhibitor, before cell suspension was added to the measuring cuvette and the catalyzed reaction was determined for 12 min. […] IC50 values were determined by Hill1 fit using OriginPro 8.6 (OriginLab Corporation). CA enzymatic activity in units (U) was calculated as defined by Badger and Price[52]. […]

[13] = biological target: T10, CAXII (Homo sapiens, UniProt O43570); assay: Thermal shift assay (TSA), recombinant CAXII; format: binding; conditions: 37 °C, pH 7.0, observed (not intrinsic)
T10 construct: Isozymes CAIX, CAXII, and CAXIV were the catalytic domains of the proteins; made in house; host or cells: E. coli
T10 sequence (O43570 30-289 limits assumed): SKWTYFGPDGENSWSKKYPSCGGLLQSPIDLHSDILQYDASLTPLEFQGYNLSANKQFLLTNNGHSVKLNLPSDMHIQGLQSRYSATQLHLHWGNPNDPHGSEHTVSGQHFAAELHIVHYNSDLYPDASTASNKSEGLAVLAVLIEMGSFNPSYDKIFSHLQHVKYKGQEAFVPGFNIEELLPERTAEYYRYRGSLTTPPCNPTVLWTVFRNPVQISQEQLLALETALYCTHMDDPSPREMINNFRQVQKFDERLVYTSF
Experimental: as §1, §2, §3

[14] = biological target: T11, CAIX expressed on live HeLa cells (Homo sapiens, UniProt Q16790); assay: Competition of unlabeled compound with 10 nM GZ19-32 on hypoxic HeLa cells (competitive binding model); format: cell-based
T11 construct: recombinant CAIX and endogenous CAIX expressed on the cell surface; endogenous in cells; host or cells: HeLa (WT), grown under hypoxia (1% O2)

[15] = biological target: T12, CAII (Homo sapiens, UniProt P00918); assay: Thermal shift assay (TSA), recombinant CAII; format: binding; conditions: 37 °C, pH 7.0, observed (not intrinsic)
T12 construct: made in house; host or cells: E. coli
Experimental: as §1, §2, §3

[16] = test system: CA activity in hypoxic HeLa WT cells; assay: CA activity by gas-analysis mass spectrometry in live hypoxic HeLa WT cells; format: cell-based, human; conditions: Fig. 7A
Experimental: as §4

[17] = biological target: T13, CAXIII (Homo sapiens, UniProt Q8N1Q1); assay: Thermal shift assay (TSA), recombinant CAXIII; format: binding; conditions: 37 °C, pH 7.0, observed (not intrinsic)
T13 construct: made in house; host or cells: E. coli
T13 sequence (Q8N1Q1 whole entry): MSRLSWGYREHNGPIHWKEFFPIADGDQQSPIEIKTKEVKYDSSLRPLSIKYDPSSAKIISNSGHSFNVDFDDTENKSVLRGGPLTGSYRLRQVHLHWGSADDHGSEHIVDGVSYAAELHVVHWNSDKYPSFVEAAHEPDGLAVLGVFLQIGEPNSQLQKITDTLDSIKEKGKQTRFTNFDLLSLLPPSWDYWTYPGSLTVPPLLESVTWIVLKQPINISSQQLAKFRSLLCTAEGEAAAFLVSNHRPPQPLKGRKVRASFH

T1 sequence (Q9Y2D0 34-317): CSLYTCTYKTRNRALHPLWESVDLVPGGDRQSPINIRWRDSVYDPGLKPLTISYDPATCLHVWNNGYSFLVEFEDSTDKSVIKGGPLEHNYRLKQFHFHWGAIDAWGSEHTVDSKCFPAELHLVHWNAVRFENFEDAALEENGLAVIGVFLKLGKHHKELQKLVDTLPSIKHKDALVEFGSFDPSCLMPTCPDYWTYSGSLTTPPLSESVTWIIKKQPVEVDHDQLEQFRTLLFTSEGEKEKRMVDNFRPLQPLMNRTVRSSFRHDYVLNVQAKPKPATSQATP

Kd [1]: 160 nM
melting point: 143 to 144 °C
Kd [2]: 5000 nM
Kd [3]: 0.22 nM
Kd [4]: 12500 nM
Kd ([5]; TSA, 37 °C, pH 7.0, observed (not intrinsic), read-out: Kd CAIX): 0.033 nM
selectivity for CAIX over CAVII ([5]; ratio of Kd): 1000 ×
selectivity for CAIX over CAXII ([5]; ratio of Kd): 30 fold
selectivity for CAIX over CAXIII ([5]; ratio of Kd): 300 ×
selectivity for CAIX over CAXIV ([5]; ratio of Kd): 100 fold
selectivity for CAIX over the remaining CA isozymes ([5]; ratio of Kd): more than 3000 ×
Kd ([5]; recombinant CAIX, read-out: Kd for CAIX): 0.03 nM
Kd ([5]; recombinantly purified CAIX, read-out: Kd for purified CAIX by TSA): 0.033 nM
Kd [6]: > 200000 nM
Kd [7]: 3.3 nM
Kd [8]: 43 nM
Kd [10]: 140 nM
Kd [11]: 120 nM
Kd [13]: 1 nM and 1.4 nM
dosing midpoint of competition curve ([14]; 10 nM GZ19-32, Fig. 12): around 10 nM
Kd ([14]; HeLa cells grown under hypoxia, mixture with 10 nM GZ19-32, 20 min incubation, read-out: KdA, nM (competitive binding model)): 0.3 nM
difference between affinity for CAIX on cells and purified CAIX ([14]; lower affinity on cells): 3 to 10 factor
Kd [15]: 160 nM
IC50 ([16]; Homo sapiens, hypoxic HeLa cells, gas-analysis MS, read-out: k, inhibition of CA activity (Hill fit)): 0.92 nM
Kd [17]: 10 nM
SMILES: NS(=O)(=O)c1c(F)c(F)c(S(=O)(=O)CCC(=O)O)c(NC2CCCCCCC2)c1F [GZ18-23, 3-((2-(cyclooctylamino)-3,5,6-trifluoro-4-sulfamoylphenyl)sulfonyl)propanoic acid]
viability of hypoxic HeLa cells [9]: did not affect the viability
effect on CA activity [12]: no effect
overall CA activity remaining uninhibited ([16]; hypoxic HeLa WT cells): approximately 20%

From PMC9586938, “Picomolar fluorescent probes for compound affinity determination to carbonic anhydrase IX expressed in live cancer cells” (Scientific Reports, 2022)
